Results as given in patent US12540142B2, “Method for evaluating quality of (3S)-3-(4-(3-(1,4-dioxaspiro[4,5]dec-7-en-8-yl)benzyloxy)phenyl)hex-4-inoic acid” (Hyundai Pharm Co., Ltd., priority 2020, dated 2026).
pEC50: −log10 of the molar value.

Assays:
[1] = Related substance analysis by HPLC after refrigerated storage for about 2 years; type: physicochemical; conditions: substance stored under refrigerated conditions (5° C.±3° C.) for about 2 years; for Area %: HPLC 220 nm
Procedure: About 35 mg of a (3S)-3-(4-(3-(1,4-dioxaspiro[4,5]dec-7-en yl)benzyloxy)phenyl)hex-4-inoic acid-containing substance stored under refrigerated conditions (5° C.±3° C.) for about 2 years was accurately weighed and put into a 50-ml volume flask, a diluent was added to the flask at about ⅔ of the volume, and the resulting mixture was mixed well. Thereafter, a related substance was analyzed using HPLC (Agilent Technologies 1200 Series).
<HPLC conditions> Operation Parameters
Column: Kinetex EVO C18, 5 um, 4.6×250 mm
Column temperature: 25° C.
Sample concentration: 0.7 mg/ml
Mobile Phase A: 0.01 M K2HPO4 (pH 7)

[2] = Stress sample with oxidant (3% hydrogen peroxide), related substance analysis by HPLC; type: physicochemical; conditions: 3% hydrogen peroxide solution, room temperature, 24 hours; HPLC as in Example 1
Procedure: A stress sample stressed using an oxidant was prepared to confirm the production of the related substance. About 35 mg of a (3S)-3-(4-(3-(1,4-dioxaspiro[4,5]dec-7-en-8-yl)benzyloxy)phenyl)hex-4-inoic acid-containing substance stored under refrigerated conditions (5° C.±3° C.) for about 2 years was accurately weighed and put into a 50-ml volume flask. A diluent was added to the flask at about ⅔ of the volume, and the resulting mixture was mixed well. After 2 ml of a 3% hydrogen peroxide solution was added thereto, the resulting mixture was mixed well and marked with a diluent. The stress sample was left to stand at room temperature, and 24 hours later, the related substance was analyzed using HPLC (Agilent Technologies 1200 Series). The related substance was analyzed under the same conditions as in Example 1. As a result, it was confirmed that the related substance was produced from the stress sample (RRT 0.93, Area 3.83%). A comparison of the HPLC data of both samples using the sample of Example 1 as a control is shown in FIG. 4 (blue: control, green: stress sample). It was confirmed that the production of the related substance of Chemical Formula 2 in the stress sample was increased compared to the control.

[3] = research project title; no test described; cited from earlier work
[4] = research project title; no test described; cited from earlier work; remark: listed apart in the source

Area % [1] [%] | Area of related substance produced (RRT 0.93) [2] [%] | Area % of related substance (RRT: 0.93) ([1]; HPLC) [%] | Compound | pEC50 [3] | hypoglycemic effect (HbA1c) [4] [%]
98.9289 |  |  | CC#C[C@@H](CC(=O)O)c1ccc(OCc2cccc(C3=CCC4(CC3)OCCO4)c2)cc1 [Chemical Formula 1, (3S)-3-(4-(3-(1,4-dioxaspiro[4,5]dec-7-en-8-yl)benzyloxy)phenyl)hex-4-inoic acid] |  | 
0.2566 | 3.83 | 0.26 | CC#C[C@@H](CC(=O)O)c1ccc(OCc2cccc(C34CCC5(CC3O4)OCCO5)c2)cc1 (stereo partly drawn) [Chemical Formula 2, (3S)-3-(4-((3-(7-oxaspiro[bicyclo[4.1.0]heptane-3,2′-[1,3]dioxolan]-6-yl)benzyl)oxy)phenyl)hex-4-inoic acid] |  | 
 |  |  | CC#C[C@@H](CC(=O)O)c1ccc(OCc2cccc(C3=CCC4(CC3)OCCO4)c2)cc1 [HD-6277] | > 9.00 | > 1
